#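 Five concentrations, 48 hours, 96-well plates. GI50 marks 50% less growth. TGI: concentration producing complete growth inhibition.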
# Assays:
# Test in all cases: growth of human tumour cells (NCI), 48 h
# SNB-75 CNS = system: SNB-75 CNS
# LOX IMVI melanoma = system: LOX IMVI melanoma
# COLO 205 colon = system: COLO 205 colon
# CAKI-1 renal = system: CAKI-1 renal
# BT-549 breast = system: BT-549 breast
# SF-295 CNS = system: SF-295 CNS
# 786-0 renal = system: 786-0 renal
# SK-OV-3 ovarian = system: SK-OV-3 ovarian
# HS 578T breast = system: HS 578T breast
# SF-539 CNS = system: SF-539 CNS
SMILES,GI50 (SNB-75 CNS),TGI (SNB-75 CNS),GI50 (LOX IMVI melanoma),TGI (LOX IMVI melanoma),GI50 (COLO 205 colon),TGI (COLO 205 colon),GI50 (CAKI-1 renal),TGI (CAKI-1 renal),GI50 (BT-549 breast),TGI (BT-549 breast),GI50 (SF-295 CNS),TGI (SF-295 CNS),GI50 (786-0 renal),TGI (786-0 renal),GI50 (SK-OV-3 ovarian),TGI (SK-OV-3 ovarian),GI50 (HS 578T breast),TGI (HS 578T breast),GI50 (SF-539 CNS),TGI (SF-539 CNS)
NS(=O)(=O)c1ccc(N=Nc2c(O)[nH]c3ccc(C(=O)NCc4ccncc4)cc23)cc1,> 25 µM,> 25 µM,> 25 µM,> 25 µM,> 25 µM,> 25 µM,> 25 µM,> 25 µM,> 9.38 µM,> 25 µM,> 25 µM,> 25 µM,> 25 µM,> 25 µM,> 25 µM,> 25 µM,> 25 µM,> 25 µM,> 25 µM,> 25 µM
NC(=O)[C@@H](CC1CC1)[C@@H](CCC(F)(F)F)C(=O)N[C@H]1N=C(c2ccccc2)c2cccc(F)c2NC1=O,16.3 µM,> 100 µM,48 µM,> 100 µM,> 100 µM,> 100 µM,> 100 µM,> 100 µM,> 100 µM,> 100 µM,> 100 µM,> 100 µM,17.8 µM,53.9 µM,> 100 µM,> 100 µM,> 100 µM,> 100 µM,17.4 µM,38.9 µM
C=C/C(C)=C/C[C@]1(C)[C@H](C)[C@@H](OC(=O)CCC)[C@H](O)[C@@]23C(=C[C@H](OC)C[C@@H]12)[C@@H](OC(=O)CCC)O[C@H]3OC(C)=O,1.21 µM,2.47 µM,1.22 µM,2.56 µM,0.444 µM,1.73 µM,1.32 µM,2.64 µM,1.11 µM,2.75 µM,0.992 µM,2.48 µM,0.287 µM,0.888 µM,0.266 µM,0.806 µM,1.13 µM,3.38 µM,0.566 µM,1.6 µM
CCc1ccccc1NC(=O)/C=C/c1ccccc1,,> 100 µM,,> 100 µM,,> 100 µM,,> 100 µM,,> 100 µM,,> 100 µM,,> 100 µM,,> 100 µM,,> 100 µM,,> 100 µM
NS(=O)(=O)c1ccc(N2N=C3c4ccccc4CC3C2c2cccs2)cc1 (stereo not given),31.1 µM,> 100 µM,19.1 µM,42.6 µM,58.9 µM,> 100 µM,19.6 µM,38.2 µM,19.3 µM,51.7 µM,16.2 µM,34.4 µM,17.6 µM,41.7 µM,48 µM,> 100 µM,28.7 µM,76.9 µM,17.4 µM,48.1 µM
Oc1c(Cl)cc(Cl)c2ccc(Cn3cc(-c4cc(C(F)(F)F)cc(C(F)(F)F)c4)nn3)nc12,1.47 µM,8.09 µM,0.317 µM,1.28 µM,1.35 µM,2.89 µM,1.16 µM,2.53 µM,1.84 µM,4.41 µM,17 µM,31 µM,1.97 µM,4.47 µM,16.4 µM,30.1 µM,2.98 µM,9.3 µM,1.53 µM,2.94 µM
CN1CCN(Cc2ccc(NC(=O)c3cncc(C#Cc4cnc(N)cc4C#N)c3)cc2C(F)(F)F)CC1,5.92 µM,19.8 µM,0.601 µM,1.99 µM,1.39 µM,12.8 µM,3.78 µM,16.7 µM,4.25 µM,16.8 µM,3.54 µM,15.3 µM,4.38 µM,16 µM,2.63 µM,9.31 µM,1.46 µM,7.46 µM,0.959 µM,3.55 µM

# Reference: PubChem BioAssay (NCI)
